Like-named read-outs stand apart in the source and are kept apart here.
Assays:
[1] = biological target: T1, Concanavalin A (Con A) (Canavalia ensiformis, UniProt P02866); experiment: biochemical; format: binding
T1 construct: purchased Sigma
Method: Fluorescence spectra were recorded with a Shimadzu spectrofluorometer (Japan). The emission spectra of the tryptophan residues were recorded in a 1-cm quartz cell (Hellma Analytics, Germany). To avoid the measurement of the Tyr emission, the protein sample was excited at λ=295 nm with a slit width of 1.0 nm. Total fluorescence was calculated after the normalization of the fluorescence spectra and correction for dilution. In order to normalize the inner filter and self-absorption effects, the excitation was always carried out less than 0.05 OD. The spectra were recorded in a wavelength range of 300–500 nm. All studies were done at 25°C with the temperature of the samples measured in the cuvette with an accuracy of ± 0.2°C.
The protein-ligand interactions were investigated by monitoring changes in the intrinsic protein fluorescence emission (θexc=295 nm). We applied ideal fluorescence titration and incubation methods for their intrinsic sensitivity and simplicity. For this purpose, Con A (1.8 µM) was incubated at 4°C overnight with increasing concentrations of MnTMPyP, ZnTPPS, and FeTMPyP. […] Applied porphyrin concentrations were consistent with minimizing artifacts due to aggregation phenomena. Con A-adenine interactions were studied by overnight incubation (at 4°C). The obtained experimental data were processed by non-linear and linear regression analysis, computed by a GraphPad Prism program and presented in figures comprising three independent sets of experiments.

[2] = tested on: cancer cell lines (Du-145, HD-LAPC-4, Hep-G2, HI-LAPC-4, LnCAP, PANC-1, and PC-3); design: method as in PMID 20735206; details: combined with an ascorbic acid; cited from earlier work
[3] = tested on: G361 (a human melanoma cell line); design: method as in PMID 18645224; details: G361 cells; cited from earlier work
[4] = pH 6.8, read-out: Dissociation constants (KD) for the interaction

| Compound | effect on Trp fluorescence emission of Con A [1] | Kd [1, 4] | other results |
| --- | --- | --- | --- |
| 5,10,15,20-Tetrakis(4-sulfonatophenyl)-porphyrin-Au(III)chloride [AuTPPS] | fluorescence quenching | – | – |
| C[n+]1ccc(-c2c3nc(c(-c4cc[n+](C)cc4)c4ccc([n-]4)c(-c4cc[n+](C)cc4)c4nc(c(-c5cc[n+](C)cc5)c5ccc2[n-]5)C=C4)C=C3)cc1.[Fe+3] [FeTMPyP, 5,10,15,20-Tetrakis (N-methyl 4-pyridyl)-porphyrin Fe(III)] | – | 950 ± 130 nM | Hill slope (h) [1]: 1.89±0.46; blue shift of the emission maximum [1]: 5 nm |
| C[n+]1ccc(-c2c3nc(c(-c4cc[n+](C)cc4)c4ccc([n-]4)c(-c4cc[n+](C)cc4)c4nc(c(-c5cc[n+](C)cc5)c5ccc2[n-]5)C=C4)C=C3)cc1.[Cl-].[Cl-].[Cl-].[Cl-].[Cl-].[Mn+3] [MnTMPyP, 5,10,15,20-Tetrakis (N-methyl-4-pyridyl)-porphyrin-Mn(III)pentachloride] | fluorescence quenching | 1890 ± 540 nM | cytotoxic effect [2]: potent synergistic cytotoxic effect |
| O=S(=O)([O-])c1ccc(-c2c3nc(c(-c4ccc(S(=O)(=O)[O-])cc4)c4ccc([nH]4)c(-c4ccc(S(=O)(=O)[O-])cc4)c4nc(c(-c5ccc(S(=O)(=O)[O-])cc5)c5ccc2[nH]5)C=C4)C=C3)cc1.[Zn+2].[Zn+2] [ZnTPPS, 5,10,15,20-Tetrakis (4-sulfonatophenyl)-porphyrin-zinc(II)] | increase in the Trp fluorescence | – | red shift of the emission maximum position [1]: 10 nm; cell death [3]: induces cell death |
| Nc1ncnc2[nH]cnc12 [adenine] | fluorescence quenching | – | Kd [1]: 380 ± 80 nM |
